{"source": "paper PMC6877910", "about": "“Astrocyte-Targeted Transporter-Utilizing Derivatives of Ferulic Acid Can Have Multifunctional Effects Ameliorating Inflammation and Oxidative Stress in the Brain” (Oxidative Medicine and Cellular Longevity, 2019)", "key": {"[1]": {"system": "mTOR", "test": "Total amount of mTOR (ELISA) in cells", "format": "cell-based, mouse", "settings": "48 h", "description": "Enzyme-Linked Immunosorbent Assay (ELISA) kits were used (mTOR SimpleStep ELISA Kit and NFκB p65 Total SimpeStep ELISA Kit, Abcam, Cambridge, UK) to quantify mammalian (or mechanistic) target of rapamycin (mTOR) and transcription factor NF-κB amounts, respectively. […] The control wells were treated with the solvent only (0.5% DMSO). Cells were solubilized using the provided extraction buffer with the kit, incubated on ice for 20 minutes and centrifuged at 18 000 × g for 20 min at 4°C. The supernatants were stored at -80°C till the day of the analysis. Standards and samples were then analyzed following the manufacturer's protocol (ELISA sandwich method) and by reading the absorbance with the EnVision plate reader (EnVision, PerkinElmer, Inc., Waltham, MA, USA) at 450 nm. The results were analyzed as pmol of formed mTOR or NF-κB per mL."}, "[2]": {"biological_target": "T1, purified human BACE1 (Homo sapiens, UniProt P56817)", "T1 construct": "purchased AnaSpec, Inc., Fremont, CA, USA SensoLyte 520 BACE1 Assay kit (catalogue number not given)", "T1 sequence (P56817 46-501)": "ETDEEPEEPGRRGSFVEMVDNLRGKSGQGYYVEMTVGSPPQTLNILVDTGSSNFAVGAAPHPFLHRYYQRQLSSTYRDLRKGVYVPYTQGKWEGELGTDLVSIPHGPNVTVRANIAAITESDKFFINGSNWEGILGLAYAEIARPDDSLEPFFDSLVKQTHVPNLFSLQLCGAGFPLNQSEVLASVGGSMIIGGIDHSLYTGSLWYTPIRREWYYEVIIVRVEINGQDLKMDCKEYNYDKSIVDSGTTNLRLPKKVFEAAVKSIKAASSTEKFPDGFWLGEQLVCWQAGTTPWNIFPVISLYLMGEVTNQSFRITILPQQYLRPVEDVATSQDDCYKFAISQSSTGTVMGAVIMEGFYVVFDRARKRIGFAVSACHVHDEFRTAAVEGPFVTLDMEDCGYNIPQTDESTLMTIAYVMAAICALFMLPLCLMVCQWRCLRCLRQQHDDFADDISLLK", "test": "BACE1 FRET inhibition assay (SensoLyte 520)", "format": "biochemical", "settings": "0.25 μM; 30 min", "text": "A fluorometric assay was used to screen the inhibitory effect of the studied compounds on purified human BACE1 using a fluorescence resonance energy transfer (FRET) peptide technique (SensoLyte© 520 BACE1 Assay kit, AnaSpec, Inc., Fremont, CA, USA) according to the manufacturer's protocol. […] The sequence of the FRET peptide has been derived from the β-secretase cleavage site of β-amyloid precursor protein (APP) with Swedish mutation, which enhances β-secretase to process APP resulting in an early onset of AD. Thus, active β-secretase cleaved FRET substrate into two separate fragments resulting in the release of HiLyte™ Fluor 488 fluorescence that was measured by the EnVision plate reader (EnVision, PerkinElmer, Inc., Waltham, MA, USA) at λex 490 nm and λem 520 nm. […] The results were reported as percentages (%), with control sample representing 100% β-secretase activity."}, "[3]": {"system": "peroxidase activity of cyclooxygenases (COX)", "test": "Peroxidase activity of cyclooxygenases in cell lysates (fluorometric kit)", "format": "biochemical", "settings": "100 μM; 30 min; assay does not differentiate COX from LOX", "description": "A coupled oxidation-reduction fluorometric assay was used to assess the inhibitory effect of compounds (100 μM) together with positive controls on the peroxidase activity of cyclooxygenases (COX) (ab204699 Cyclooxygenase Activity Assay Kit, Abcam, Cambridge, UK). The method has been done and validated according to the manufacturer's protocol. Briefly, studied compounds (100 μM) and the reaction mixture were incubated with the cell lysates at room temperature and the reaction was initiated by adding arachidonic acid/NaOH solution. The fluorescence was read in a kinetic mode after every 15 seconds for 30 minutes by the EnVision plate reader (EnVision, PerkinElmer, Inc., Waltham, MA, USA) at λex 535 nm and λem 587 nm."}}, "data": [{"compound": "NCC1(CC(=O)O)CCCCC1", "note": "[gabapentin]", "values": [{"measurement": "Reduction of total amount of mTOR", "setting": "[1]; 100 μM", "result": "46-49%"}]}, {"compound": "CN(C)C(=N)N=C(N)N", "note": "[metformin]", "values": [{"measurement": "Reduction of total amount of mTOR", "setting": "[1]; 100 μM", "result": "did not affect"}]}, {"compound": "KTEEISEVN-Sta-VAEF-NH2 [reference compound]", "values": [{"measurement": "BACE1 inhibition", "setting": "[2]", "result": "ca. 85%"}]}, {"compound": "CO[C@H]1C[C@@H]2CC[C@@H](C)[C@@](O)(O2)C(=O)C(=O)N2CCCC[C@H]2C(=O)O[C@H]([C@H](C)C[C@@H]2CC[C@@H](O)[C@H](OC)C2)CC(=O)[C@H](C)/C=C(\\C)[C@@H](O)[C@@H](OC)C(=O)[C@H](C)C[C@H](C)/C=C/C=C/C=C/1C", "note": "[rapamycin]", "values": [{"measurement": "Reduction of total amount of mTOR", "setting": "[1]; 1 μM", "result": "46-49%"}]}, {"compound": "O=C(O)Cc1ccccc1Nc1c(Cl)cccc1Cl", "note": "[DCF, diclofenac]", "values": [{"measurement": "Inhibition of peroxidase activity of COX enzymes", "setting": "[3]", "result": 18, "unit": "%"}]}]}
